According to US20260174875A1 (Novo Nordisk A/S, priority 2023, published 2026):
Numbered stars: 1 amine (or outer) side, 2 acyl side, 3 side chain; on linkers, the order of the positions; unused ones are H or OH. Square brackets hold non-standard residues; d marks the D form. Side chains are listed from the residue outwards. * marks the point of attachment. C20 diacid = O=C(O)CCCCCCCCCCCCCCCCCCC(=O)*; C18 diacid = O=C(O)CCCCCCCCCCCCCCCCC(=O)*; γGlu = O=C(O)[C@H](CCC(=O)[*:2])N[*:1]; AEEA = NCCOCCOCC(=O)O; Aib = CC(C)(N)C(=O)O

Target: T1, human GLP-1 receptor (hGLP-1R) (Homo sapiens, UniProt P43220)
T1 construct: expressed in transfected cells
Test: GLP-1 receptor assay, method A (CRE-luciferase reporter, BHK cells)
Type: cell-based
Conditions: hGLP-1R Potency, 1% HSA, EC50, method A, in the presence of 1% HSA
How it was run: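 Run in parallel with no HSA and with 1% (w/v) HSA to gauge albumin effects; assay buffer also held 1% ovalbumin, 10 mM HEPES and 0.1% Pluronic F-68. Thawed hGLP-1R BHK CRE-Luc cells incubated 3 h at 37 °C, then luciferase luminescence measured (steadylite Plus).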

T1 sequence (P43220 24-463): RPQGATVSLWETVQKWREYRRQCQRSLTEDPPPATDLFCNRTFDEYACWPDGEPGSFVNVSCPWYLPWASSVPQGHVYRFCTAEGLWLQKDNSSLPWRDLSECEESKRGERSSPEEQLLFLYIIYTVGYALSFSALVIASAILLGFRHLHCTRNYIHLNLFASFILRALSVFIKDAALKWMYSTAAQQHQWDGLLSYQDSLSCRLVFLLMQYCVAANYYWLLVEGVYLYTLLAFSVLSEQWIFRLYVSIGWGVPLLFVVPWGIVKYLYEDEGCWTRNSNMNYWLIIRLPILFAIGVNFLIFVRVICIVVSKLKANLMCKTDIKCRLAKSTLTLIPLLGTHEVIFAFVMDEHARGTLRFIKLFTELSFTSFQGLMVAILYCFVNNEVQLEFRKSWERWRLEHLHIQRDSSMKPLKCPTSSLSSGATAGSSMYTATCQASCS

Substance	EC50 [nM]
Y[Aib]EGTFTSDYSILLEEQAAREFIEWLLAGGPSSGAPPPSGGGEASHLSTAQTQRLSAK([AEEA-AEEA-γGlu-C18 diacid])LHRLATLPRTETGSGSP-NH2 [Compound 109]	0.0947
Y[Aib]EGTFTSDYSILLEEQAAREFIEWLLAGGPSSGAPPPSGGGEASHLSTAQTQRLSAK([AEEA-AEEA-γGlu-C20 diacid])LHRLATLPRTETGSGSP-NH2 [Compound 110]	0.169
Y[Aib]EGTFTSDYSILLEEQAAREFIEWLLAGGPSSGEASHLSTAQTQRLSAELHK([AEEA-AEEA-γGlu-C18 diacid])LATLPRTETGSGSP-NH2 [Compound 50]	0.0663
Y[Aib]EGTFTSDYSILLEEQAAREFIEWLLAGGPSSGEASHLSTAQTQRLSAELHRLK([AEEA-AEEA-γGlu-C18 diacid])TLPRTETGSGSP-NH2 [Compound 80]	0.111
Y[Aib]EGTFTSDYSILLEEQAAREFIEWLLAGGPSSGEASHLSTAQTQRLSAK([AEEA-AEEA-γGlu-C18 diacid])LHRLATLPRTETGSGSP-NH2 [Compound 79]	0.168

Same assay, conditions: method A, absence of HSA; read-out: hGLP-1R Potency, no HSA, EC50

Substance	EC50 [nM]
Y[Aib]EGTFTSDYSILLEEQAAREFIEWLLAGGPSK([AEEA-AEEA-γGlu-C18 diacid])GEASHLSTAQTARLSAELHELATLPRTETGSGSP-NH2 [Compound 35]	0.0233
Y[Aib]EGTFTSDYSILLEEQAAREFIEWLLAGGPSSGAPPPSGGGEASHLSTAQTQRLSAK([AEEA-AEEA-γGlu-C18 diacid])LHRLATLPRTETGSGSP-NH2 [Compound 109]	0.0689
Y[Aib]EGTFTSDYSILLEEQAAREFIEWLLAGGPSSGAPPPSGGGEASHLSTAQTQRLSAK([AEEA-AEEA-γGlu-C20 diacid])LHRLATLPRTETGSGSP-NH2 [Compound 110]	0.107
Y[Aib]EGTFTSDYSILLEEQAAREFIEWLLAGGPSSGEASHLSTAQTQRLSAELHK([AEEA-AEEA-γGlu-C18 diacid])LATLPRTETGSGSP-NH2 [Compound 50]	0.0162
Y[Aib]EGTFTSDYSILLEEQAAREFIEWLLAGGPSSGEASHLSTAQTQRLSAELHRLK([AEEA-AEEA-γGlu-C18 diacid])TLPRTETGSGSP-NH2 [Compound 80]	0.0248
Y[Aib]EGTFTSDYSILLEEQAAREFIEWLLAGGPSSGEASHLSTAQTQRLSAK([AEEA-AEEA-γGlu-C18 diacid])LHRLATLPRTETGSGSP-NH2 [Compound 79]	0.0387

Target: T2, human amylin receptor (hAMYR3) (Homo sapiens, UniProt O60896+P30988)
T2 construct: host or cells: BHK cells (Hollex-1 line expressing hCTR(a) and CRE-Luc), further transfected with human RAMP3
Test: Amylin receptor assay, method A (CRE-luciferase reporter, BHK cells)
Type: cell-based
Conditions: hAMYR3 Potency, 1% HSA, EC50, method A, in the presence of 1% HSA

T2 sequence (P30988 25-474): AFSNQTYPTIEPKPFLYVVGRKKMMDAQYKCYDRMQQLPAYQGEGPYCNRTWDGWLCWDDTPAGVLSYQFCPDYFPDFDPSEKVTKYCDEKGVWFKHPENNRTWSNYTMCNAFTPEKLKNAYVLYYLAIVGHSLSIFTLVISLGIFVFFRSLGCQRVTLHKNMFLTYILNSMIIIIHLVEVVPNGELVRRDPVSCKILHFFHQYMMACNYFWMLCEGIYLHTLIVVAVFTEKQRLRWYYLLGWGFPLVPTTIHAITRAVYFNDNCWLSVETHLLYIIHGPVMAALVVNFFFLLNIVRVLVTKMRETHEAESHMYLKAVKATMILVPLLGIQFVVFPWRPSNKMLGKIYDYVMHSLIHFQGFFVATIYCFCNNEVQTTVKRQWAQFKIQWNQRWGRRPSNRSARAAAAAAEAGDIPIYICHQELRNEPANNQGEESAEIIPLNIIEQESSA
T2 sequence (O60896 24-148): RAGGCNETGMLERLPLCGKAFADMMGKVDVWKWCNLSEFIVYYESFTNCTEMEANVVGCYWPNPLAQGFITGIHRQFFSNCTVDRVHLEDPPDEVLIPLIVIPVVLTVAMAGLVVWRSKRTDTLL

Substance	EC50 [nM]
Y[Aib]EGTFTSDYSILLEEQAAREFIEWLLAGGPSSGAPPPSGGGEASHLSTAQTQRLSAK([AEEA-AEEA-γGlu-C18 diacid])LHRLATLPRTETGSGSP-NH2 [Compound 109]	0.032
Y[Aib]EGTFTSDYSILLEEQAAREFIEWLLAGGPSSGAPPPSGGGEASHLSTAQTQRLSAK([AEEA-AEEA-γGlu-C20 diacid])LHRLATLPRTETGSGSP-NH2 [Compound 110]	0.094
Y[Aib]EGTFTSDYSILLEEQAAREFIEWLLAGGPSSGEASHLSTAQTQRLSAELHK([AEEA-AEEA-γGlu-C18 diacid])LATLPRTETGSGSP-NH2 [Compound 50]	0.185
Y[Aib]EGTFTSDYSILLEEQAAREFIEWLLAGGPSSGEASHLSTAQTQRLSAELHRLK([AEEA-AEEA-γGlu-C18 diacid])TLPRTETGSGSP-NH2 [Compound 80]	0.0624
Y[Aib]EGTFTSDYSILLEEQAAREFIEWLLAGGPSSGEASHLSTAQTQRLSAK([AEEA-AEEA-γGlu-C18 diacid])LHRLATLPRTETGSGSP-NH2 [Compound 79]	0.0534

Same assay, conditions: method A, absence of HSA; read-out: hAMYR3 Potency, no HSA, EC50

Substance	EC50 [nM]
Y[Aib]EGTFTSDYSILLEEQAAREFIEWLLAGGPSK([AEEA-AEEA-γGlu-C18 diacid])GEASHLSTAQTARLSAELHELATLPRTETGSGSP-NH2 [Compound 35]	0.00421
Y[Aib]EGTFTSDYSILLEEQAAREFIEWLLAGGPSSGAPPPSGGGEASHLSTAQTQRLSAK([AEEA-AEEA-γGlu-C18 diacid])LHRLATLPRTETGSGSP-NH2 [Compound 109]	0.00365
Y[Aib]EGTFTSDYSILLEEQAAREFIEWLLAGGPSSGAPPPSGGGEASHLSTAQTQRLSAK([AEEA-AEEA-γGlu-C20 diacid])LHRLATLPRTETGSGSP-NH2 [Compound 110]	0.00327
Y[Aib]EGTFTSDYSILLEEQAAREFIEWLLAGGPSSGEASHLSTAQTQRLSAELHK([AEEA-AEEA-γGlu-C18 diacid])LATLPRTETGSGSP-NH2 [Compound 50]	0.0032
Y[Aib]EGTFTSDYSILLEEQAAREFIEWLLAGGPSSGEASHLSTAQTQRLSAELHRLK([AEEA-AEEA-γGlu-C18 diacid])TLPRTETGSGSP-NH2 [Compound 80]	0.00323
Y[Aib]EGTFTSDYSILLEEQAAREFIEWLLAGGPSSGEASHLSTAQTQRLSAK([AEEA-AEEA-γGlu-C18 diacid])LHRLATLPRTETGSGSP-NH2 [Compound 79]	0.00353

Test system: not listed separately
Test: Chemical stability assessment in formulation (UPLC-UV-MS purity loss at 37° C.)
Type: physicochemical
Conditions: 8 mM phosphate buffer pH 7.4, 1 mg/mL, 2 weeks
How it was run: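 Peptides at target 1 mg/mL in 8 mM phosphate buffer, pH adjusted to 7.4, incubated in capped vials at 37° C. and sampled over 2 weeks, frozen until analysis. Purity followed by UPLC-UV-MS with a 0.1% formic acid water/acetonitrile gradient.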

Substance	Purity loss per week at 37° C. [%]
Y[Aib]EGTFTSDYSILLEEQAAREFIEWLLAGGPSK([AEEA-AEEA-γGlu-C18 diacid])GEASHLSTAQTARLSAELHELATLPRTETGSGSP-NH2 [Compound 35]	0.3
Y[Aib]EGTFTSDYSILLEEQAAREFIEWLLAGGPSSGEASHLSTAQTQRLSAELHK([AEEA-AEEA-γGlu-C18 diacid])LATLPRTETGSGSP-NH2 [Compound 50]	0.7
Y[Aib]EGTFTSDYSILLEEQAAREFIEWLLAGGPSSGEASHLSTAQTQRLSAELHRLK([AEEA-AEEA-γGlu-C18 diacid])TLPRTETGSGSP-NH2 [Compound 80]	0.8
Y[Aib]EGTFTSDYSILLEEQAAREFIEWLLAGGPSSGEASHLSTAQTQRLSAK([AEEA-AEEA-γGlu-C18 diacid])LHRLATLPRTETGSGSP-NH2 [Compound 79]	1.3
